Several values for one entry are separate records, joined by “and”; a condition that tells them apart may be missing. Equal entries are not always repeated.
Experiments:
[1] = test system: GABAA receptors of HDC−/− TMN neurons; assay: GABA-evoked whole-cell currents in TMN neurons from HDC−/− mice; assay type: cell-based, mouse; conditions: read-out: IC50 of inhibition of maximal GABA (0.5 mM) responses; adult HDC−/− mice, n = 5
Protocol: Recordings from histaminergic neurons in male Wistar rat (22–26 day old) or 30–60 day old mouse (SV129, histidine decarboxylase deficient HDC−/− or their wild type littermates) hypothalamic slices were performed as previously described. Slices were obtained between 9 and 11 a.m. In the beginning of whole-cell voltage clamp recordings TMN neurons were identified with the help of DIC microscopy and electrophysiological criteria as previously described. Inhibitory postsynaptic currents (IPSCs) were evoked by local stimulation through a bipolar stainless-steel stimulating electrode (50 µm; WPI, UK). The stimulation of axonal endings coming to TMN from ventrolateral preoptic area (VLPO) was done as described in [22]. […] Individual neurons were separated by vibrodissociation after brief preincubation with papain from the hypothalamic slices of mice or rats and identified as TMN neurons according to their size and shape. Identification was confirmed post hoc with the single-cell RT-PCR (all data presented in the manuscript were obtained from histidine decarboxylase-expressing neurons), [40]. TMN neurons from HDC−/− mice were identified by the expression of peripherin [16]. Whole-cell voltage-clamp recordings from isolated neurons were done with an EPC-9 amplifier and TIDA for Windows (HEKA, Lambrecht, Germany) at room temperature. Membrane potentials were not corrected for liquid junction potential (5.6 mV, calculated with LJPCalc, Barry, 1994). The intracellular solution was composed of (in mM) 140 KCl, 2 MgCl2, 0.5 CaCl2, 5 EGTA, 2 ATP and 10 HEPES (pH 7.2 adjusted with NaOH). A fast perfusion technique was used for application of ligands and modulators of fast ionotropic receptors, [41]. […] EC50 is the ligand concentration producing a half-maximal response, [ligand] is ligand concentration, and n is the Hill slope. Hill coefficients were obtained from the slope of the log/log plot of the dose-response curves. […] Steady-state amplitudes of the responses were used for the construction of dose-response plots if not mentioned otherwise.

NMDA receptors = assay: NMDA-evoked currents in isolated neurons; assay type: cell-based
Protocol: Recordings from histaminergic neurons in male Wistar rat (22–26 day old) or 30–60 day old mouse (SV129, histidine decarboxylase deficient HDC−/− or their wild type littermates) hypothalamic slices were performed as previously described. Slices were obtained between 9 and 11 a.m. In the beginning of whole-cell voltage clamp recordings TMN neurons were identified with the help of DIC microscopy and electrophysiological criteria as previously described. Inhibitory postsynaptic currents (IPSCs) were evoked by local stimulation through a bipolar stainless-steel stimulating electrode (50 µm; WPI, UK). The stimulation of axonal endings coming to TMN from ventrolateral preoptic area (VLPO) was done as described in [22]. Visual identification of histaminergic neurons recorded in cell-attached configuration (see [16]) was confirmed by the significant reduction of firing rate by the histamine 3 (H3) receptor agonist R-α-methylhistamine (0.2 µM), which was performed at the end of each experiment. Individual neurons were separated by vibrodissociation after brief preincubation with papain from the hypothalamic slices of mice or rats and identified as TMN neurons according to their size and shape. Identification was confirmed post hoc with the single-cell RT-PCR (all data presented in the manuscript were obtained from histidine decarboxylase-expressing neurons), [40]. TMN neurons from HDC−/− mice were identified by the expression of peripherin [16]. Whole-cell voltage-clamp recordings from isolated neurons were done with an EPC-9 amplifier and TIDA for Windows (HEKA, Lambrecht, Germany) at room temperature. Membrane potentials were not corrected for liquid junction potential (5.6 mV, calculated with LJPCalc, Barry, 1994). The intracellular solution was composed of (in mM) 140 KCl, 2 MgCl2, 0.5 CaCl2, 5 EGTA, 2 ATP and 10 HEPES (pH 7.2 adjusted with NaOH). A fast perfusion technique was used for application of ligands and modulators of fast ionotropic receptors, [41]. […] EC50 is the ligand concentration producing a half-maximal response, [ligand] is ligand concentration, and n is the Hill slope. Hill coefficients were obtained from the slope of the log/log plot of the dose-response curves. […] Steady-state amplitudes of the responses were used for the construction of dose-response plots if not mentioned otherwise.
For the testing of UDCA action at NMDA receptors a maximal 0.2 mM concentration of agonist was used. Recordings were done in Mg^2+ -free solution in the presence of 10 µM of glycine. NMDA-currents were abolished by the NMDA receptor antagonist D-AP5 (100 µM).

[2] = molecular target: T1, homopentameric β3 GABAA receptors (Homo sapiens, UniProt P28472); assay: Patch-clamp of β3 homopentameric receptors in HEK293 cells, histamine-evoked currents; assay type: cell-based; conditions: histamine 5 mM
T1 construct: expressed in transfected cells; host or cells: HEK293
Protocol: (§1) HEK 293 cells were obtained from DSM (Deutsche Sammlung von Mikroorganismen und Zellkulturen GmbH, DSM, Braunschweig). They were grown and maintained according to published standard protocols. Briefly, cells were grown in minimal essential medium supplemented with 10% fetal bovine serum, 100units/ml penicillin and streptomycin and 2 mM L-glutamine and splitted once per week. Semiconfluent cells were transfected on the third day after splitting with the help of Lipofectamine 2000 (Invitrogen), recordings were done 48–72 hrs after transfection.
(§2) The GABAAR subunit cDNAs, generously donated by G.Gisselmann (rat α1, mouse γ2L, rat β1, β2 and human β3 [26]) and J.H. Steinbach (rat α1V256S [28] and rat α1Q241L [44]), were subcloned into pcDNA3 (Invitrogen, Karlsruhe, Germany) and applied in a ratio 1∶1∶1 for the α1βxγ2L receptor and 1∶1 for α1β3 or β3γ2L receptors. […] For each receptor type patch clamp recordings were obtained from at least three separate transfections. Whole-cell patch clamp recordings were done in a similar extracellular solution as for the native cells (see above) except that the concentration of MgCl2 was reduced to 1.2 mM. Intracellular electrodes contained 140 mM CsCl (instead of KCl), pH adjusted with CsOH. The voltage was held at −40 mV.

[3] = molecular target: T2, β3 homopentameric GABAA receptors (Homo sapiens, UniProt P28472); assay: Block of spontaneous openings of β3 homopentameric receptors (outward shift of baseline current); assay type: cell-based
T2 construct: expressed in transfected cells; host or cells: HEK293
Protocol: as §1, §2

α1β1γ2L GABAA receptors = molecular target: T3, α1β1γ2L GABAA receptors (UniProt P15431+P22723+P62813); assay: Patch-clamp of recombinant α1β1γ2L GABAAR in HEK293 cells; assay type: cell-based, rat α1, rat β1, mouse γ2L
T3 construct: expressed in transfected cells; host or cells: HEK293
Protocol: as §1, §2

[4] = molecular target: T4, α1β2γ2L GABAA receptors (WT) (UniProt P22723+P62813+P63138); assay: Patch-clamp of recombinant wild-type α1β2γ2L GABAAR in HEK293 cells; assay type: cell-based, rat α1, rat β2, mouse γ2L
T4 construct: expressed in transfected cells; host or cells: HEK293
Protocol: as §1, §2

TGR5 = test system: TGR5; design: method as in PMID 12524422; conditions: cited from earlier work

T4 sequence (P62813 28-455): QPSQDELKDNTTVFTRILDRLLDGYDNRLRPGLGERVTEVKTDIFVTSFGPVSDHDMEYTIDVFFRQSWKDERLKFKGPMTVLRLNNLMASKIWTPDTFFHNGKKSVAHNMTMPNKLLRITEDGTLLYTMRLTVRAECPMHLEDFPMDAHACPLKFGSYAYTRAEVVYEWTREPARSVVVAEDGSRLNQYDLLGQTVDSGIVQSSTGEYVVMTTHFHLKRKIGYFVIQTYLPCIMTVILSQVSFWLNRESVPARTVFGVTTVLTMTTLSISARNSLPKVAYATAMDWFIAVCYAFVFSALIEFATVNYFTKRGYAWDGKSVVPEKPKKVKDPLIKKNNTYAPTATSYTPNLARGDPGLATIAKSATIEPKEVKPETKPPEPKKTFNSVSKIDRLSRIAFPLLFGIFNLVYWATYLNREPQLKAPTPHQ
T4 sequence (P63138 25-474 limits assumed): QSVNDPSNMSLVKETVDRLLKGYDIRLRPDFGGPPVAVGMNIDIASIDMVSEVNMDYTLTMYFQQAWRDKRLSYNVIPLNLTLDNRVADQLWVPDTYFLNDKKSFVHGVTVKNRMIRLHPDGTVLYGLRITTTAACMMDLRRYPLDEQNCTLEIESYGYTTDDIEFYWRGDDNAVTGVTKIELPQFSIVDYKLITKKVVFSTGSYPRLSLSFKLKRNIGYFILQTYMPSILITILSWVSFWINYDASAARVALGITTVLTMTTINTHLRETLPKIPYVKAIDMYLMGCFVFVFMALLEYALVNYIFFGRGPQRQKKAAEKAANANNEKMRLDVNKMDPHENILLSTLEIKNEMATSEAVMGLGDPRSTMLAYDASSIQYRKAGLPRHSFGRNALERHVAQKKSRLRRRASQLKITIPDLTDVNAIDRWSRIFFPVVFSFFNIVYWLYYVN
T4 sequence (P22723 39-474): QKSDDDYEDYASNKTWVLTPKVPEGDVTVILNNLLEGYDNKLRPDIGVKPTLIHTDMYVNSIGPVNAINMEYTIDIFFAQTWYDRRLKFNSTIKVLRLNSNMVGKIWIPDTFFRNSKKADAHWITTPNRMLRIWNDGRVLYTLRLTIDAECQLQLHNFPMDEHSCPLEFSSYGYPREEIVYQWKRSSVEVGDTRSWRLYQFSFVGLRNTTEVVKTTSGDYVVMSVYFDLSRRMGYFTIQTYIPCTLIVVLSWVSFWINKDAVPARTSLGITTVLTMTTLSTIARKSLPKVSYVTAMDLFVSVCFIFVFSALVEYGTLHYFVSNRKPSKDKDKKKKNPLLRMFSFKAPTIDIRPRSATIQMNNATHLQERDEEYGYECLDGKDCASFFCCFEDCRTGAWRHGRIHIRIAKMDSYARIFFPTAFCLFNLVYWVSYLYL
T2 sequence (P28472 26-473): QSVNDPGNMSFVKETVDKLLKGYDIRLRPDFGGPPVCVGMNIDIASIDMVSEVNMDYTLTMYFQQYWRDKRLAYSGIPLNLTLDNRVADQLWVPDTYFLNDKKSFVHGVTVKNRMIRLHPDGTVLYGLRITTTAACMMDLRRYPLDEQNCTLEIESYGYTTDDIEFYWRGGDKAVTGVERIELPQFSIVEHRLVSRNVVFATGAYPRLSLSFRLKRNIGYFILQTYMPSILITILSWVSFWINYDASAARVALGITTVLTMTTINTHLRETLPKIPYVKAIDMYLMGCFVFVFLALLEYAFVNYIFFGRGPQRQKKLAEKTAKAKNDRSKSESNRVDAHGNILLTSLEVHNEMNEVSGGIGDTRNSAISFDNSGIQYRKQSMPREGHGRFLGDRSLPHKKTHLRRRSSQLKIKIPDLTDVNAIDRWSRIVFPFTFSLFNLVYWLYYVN
T1 sequence (P28472 26-473): as above
T3 sequence (P62813 28-455): as the sequence (P62813 28-455) above
T3 sequence (P15431 26-474): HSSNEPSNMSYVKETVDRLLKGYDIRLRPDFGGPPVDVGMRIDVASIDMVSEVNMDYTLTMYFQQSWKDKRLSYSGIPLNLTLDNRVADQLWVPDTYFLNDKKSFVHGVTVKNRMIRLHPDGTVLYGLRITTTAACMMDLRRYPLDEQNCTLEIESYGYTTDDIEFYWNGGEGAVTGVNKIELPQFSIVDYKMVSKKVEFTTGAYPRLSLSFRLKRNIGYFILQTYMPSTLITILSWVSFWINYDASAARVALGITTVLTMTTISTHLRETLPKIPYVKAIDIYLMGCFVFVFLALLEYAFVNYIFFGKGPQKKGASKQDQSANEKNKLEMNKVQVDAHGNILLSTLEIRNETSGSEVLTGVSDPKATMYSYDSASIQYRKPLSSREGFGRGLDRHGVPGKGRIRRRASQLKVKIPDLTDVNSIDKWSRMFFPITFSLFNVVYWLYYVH
T3 sequence (P22723 39-474): as the sequence (P22723 39-474) above

## C[C@H](CCC(=O)O)[C@H]1CC[C@H]2[C@@H]3[C@@H](O)C[C@@H]4C[C@H](O)CC[C@]4(C)[C@H]3CC[C@]12C [UDCA, ursodeoxycholic acid]
[1]
  IC50: 90 ± 5 µM
NMDA receptors
  concentration above which block of NMDA receptors starts: higher than 100 µM
NMDA receptors; 100 µM
  NMDA-receptor mediated currents: did not affect
NMDA receptors; read-out: IC50 of NMDA receptor block, n = 4, NMDA 0.2 mM, Mg2+-free, 10 µM glycine
  IC50: 540 ± 40 µM
[2]
  Hill coefficient nH of UDCA block: 0.8
[2]; read-out: IC50 of block of histamine-evoked currents
  IC50: 7.4 ± 2 µM
[3]
  additivity of outward currents of maximal UDCA (300, 600 µM) and picrotoxin (25 µM): not additive
[3]; roughly estimated, read-out: half-maximal effect on outward shift of baseline current
  IC50: ~100 µM
α1β1γ2L GABAA receptors
  IC50: 96 ± 17 µM
[4]; IC50 of inhibition of GABA currents, maximal GABA, WT
  IC50: 85 µM and 84.7 µM
[4]; UDCA 100 µM, n = 7
  relative amplitude of maximal GABA-responses: 47±3 % of control
TGR5
  sensitivity of TGR5 to UDCA: rather insensitive

From paper PMC3412845, “Waking Action of Ursodeoxycholic Acid (UDCA) Involves Histamine and GABAA Receptor Block” (PLoS ONE, 2012)
